Laboratory results: US8012956B2, “Tropane compounds” (Exelixis, Inc., priority 2007, dated 2011)

Biological target: HSP90 (Homo sapiens, UniProt P07900)
Test: HSP90 inhibition (HSP90 IC50)
Format: biochemical

| Compound | IC50 [nM] |
| --- | --- |
| Cc1cc(C(=O)NC2CC3CCC(C2)N3c2ccc(C(=O)N[C@H]3CCCN(C(C)C)C3)cn2)c(C)cc1C(N)=O (stereo partly drawn) [2,5-dimethyl-N-{8-[5-({[(3S)-1-(1-methylethyl)piperidin-3-yl]amino}carbonyl)pyridin-2-yl]-8-azabacyclo[3.2.1]oct-3-endo-yl}benzene-1,4-dicarboxamide] | 500 to 999 |
| CC(=O)c1ccc(N2[C@@H]3CC[C@H]2C[C@@H](NC(=O)c2ccc(C(N)=O)c(N)c2)C3)nc1 [N4-[8-(5-acetylpyridin-2-yl)-8-azabicyclo[3.2.1]oct-3-endo-yl]-2-aminobenzene-1,4-dicarboxamide] | 500 to 999 |
| C[C@H](NC(=O)c1ccc(N2C3CCC2CC(NC(=O)c2ccc(C(N)=O)c(OC4CCC4)c2)C3)nc1)c1ccc(N2CCN(C)CC2)cc1 (stereo partly drawn) [2-(cyclobutyloxy)-N4-(8-{5-[({(1S)-1-[4-(4-methylpiperazin-1-yl)phenyl]ethyl}amino)carbonyl]pyridin-2-yl}-8-azabicyclo[3.2.1]oct-3-endo-yl)benzene-1,4-dicarboxamide] | 500 to 999 |
| COc1cccc(C(=O)NC2CC3CCC(C2)N3c2ccc(C(=O)N[C@@H](C)C(C)C)cn2)c1C (stereo partly drawn) [N-[(1S)-1,2-dimethylpropyl]-6-[3-endo-({[2-methyl-3-(methyloxy)phenyl]carbonyl}amino)-8-azabicyclo[3.2.1]oct-8-yl]pyridine-3-carboxamide] | 1000 to 2000 |
| COc1cccc(C(=O)N[C@H]2C[C@H]3CC[C@@H](C2)N3c2ccc(C(=O)NCC(C)C)cn2)c1C [6-[3-endo-({[2-methyl-3-(methyloxy)phenyl]carbonyl}amino)-8-azabicyclo[3.2.1]oct-8-yl]-N-(2-methylpropyl)pyridine-3-carboxamide] | 1000 to 2000 |
| C#CCNC(=O)c1ccc(N2[C@@H]3CC[C@H]2C[C@@H](NC(=O)c2cccc(OC)c2C)C3)nc1 [6-[3-endo-({[2-methyl-3-(methyloxy)phenyl)carbonyl}amino)-8-azabicyclo(3.2.1]oct-8-yl]-N-prop-2-yn-1-ylpyridine-3-carboxamide] | 1000 to 2000 |
| COc1cccc(C(=O)NC2CC3CCC(C2)N3c2ccc(C(=O)NC3CCN(c4ccccc4)CC3)cn2)c1C (stereo not drawn) [6-[3-endo-({[2-methyl-3-(methyboxy)phenyl]carbonyl}amino)-8-azabicyclo[3.2.1]oct-8-yl]-N-(1-phenylpiperidin-4-yl)pyridine-3-carboxamide] | 2000 to 10000 |
| CCN(CC)CCNC(=O)c1ccc(N2[C@@H]3CC[C@H]2C[C@@H](NC(=O)c2cccc(OC)c2C)C3)nc1 [N-[2-(diethylamino)ethyl]-6-[3-endo-({[2-methyl-3-(methyloxy)phenyl]carbonyl}amino)-8-azabicyclo[3.2.1]oct-8-yl]pyridine-3-carboxamide] | 500 to 999 |
| COc1ccc([C@H](NC(=O)c2ccc(N3C4CCC3CC(NC(=O)c3cccc(OC)c3C)C4)nc2)C(=O)O)cc1 (stereo partly drawn) [(2S)-[({6-[3-endo-({[2-methyl-3-(methyloxy)phenyl]carbonyl}amino)-8-azabicyclo[3.2.1]oct-8-yl]pyridin-3-yl}carbonyl)amino][4-(methyloxy)phenyl]ethanoic acid] | 1000 to 2000 |
| CC(C)[C@@H](C)Nc1cc(C(=O)NC2CC3CCC(C2)N3c2ccc(C(=O)C3CC3)cn2)ccc1C(N)=O (stereo partly drawn) [N4-(8-[5-(cyclopropylcarbonyl)pyridin-2-yl]-8-azabicyclo[3.2.1]oct-3-endo-yl)-2-{[(1R)-1,2-dimethylpropyl]amino}benzene-1,4-dicarboxamide] | < 500 |
| CC(=O)c1ccc(N2[C@@H]3CC[C@H]2C[C@@H](NC(=O)c2ccc(C(N)=O)c(NC4CCNCC4)c2)C3)nc1 [N4-[8-(5-acetylpyridin-2-yl)-8-azabicyclo[3.2.1]oct-3-endo-yl]-2-(piperidin-4-ylamino)benzene-1,4-dicarboxamide] | < 500 |
| COCCNC(=O)c1ccc(N2[C@@H]3CC[C@H]2C[C@@H](NC(=O)c2cccc(OC)c2C)C3)nc1 [6-[3-endo-({[2-methyl-3-(methyloxy)phenyl]carbonyl}amino)-8-azabicyclo[3.2.1]oct-8-yl]-N-[2-(methyloxy)ethyl]pyridine-3-carboxamide] | 2000 to 10000 |
| Cc1cc(C(=O)N[C@H]2C[C@H]3CC[C@@H](C2)N3c2ccc(C(=O)NC3CCN(C)CC3)cn2)c(C)cc1C(N)=O [2,5-dimethyl-N-[8-(5-{[(1-methylpiperidin-4-yl)amino]carbonyl}pyridin-2-yl)-8-azabicyclo[3.2.1]oct-3-endo-yl]benzene-1,4-dicarboxamide] | 500 to 999 |
| COc1cccc(C(=O)N[C@H]2C[C@H]3CC[C@@H](C2)N3c2ccc(C(=O)NCc3c(F)ccc(C)c3Cl)cn2)c1C [N-[(2-chloro-6-fluoro-3-methylphenyl)methyl]-6-[3-endo-({[2-methyl-3-(methyloxy)phenyl]carbonyl}amino)-8-azabicyclo[3.2.1]oct-8-yl]pyridine-3-carboxamide] | 500 to 999 |
| COc1cccc(C(=O)N[C@H]2C[C@H]3CC[C@@H](C2)N3c2ccc(C(=O)NCc3ccc(N4CCNCC4)cc3)cn2)c1C [6-[3-endo-({[2-methyl-3-(methyloxy)phenyl]carbonyl}amino)-8-azabicyclo[3.2.1]oct-8-yl]-N-[(4-piperazin-1-ylphenyl)methyl]pyridine-3-carboxamide] | < 500 |
| COc1cccc(C(=O)N[C@H]2C[C@H]3CC[C@@H](C2)N3c2ccc(C(=O)NC3CCCC3)cn2)c1C [N-cyclopentyl-6-[3-endo-({[2-methyl-3-(methyloxy)phenyl]carbonyl}amino)-8-azabicyclo[3.2.1]oct-8-yl]pyridine-3-carboxamide] | 500 to 999 |
| COc1cccc(C(=O)N[C@H]2C[C@H]3CC[C@@H](C2)N3c2ccc(C(N)=O)cn2)c1C#CCCO [6-[3-endo-({[2-(4-hydroxybut-1-yn-1-yl)-3-(methyloxy)phenyl]carbonyl}amino)-8-azabicyclo[3.2.1]oct-8-yl]pyridine-3-carboxamide] | 2000 to 10000 |
| Cc1cc(N)ccc1C(=O)N[C@H]1C[C@H]2CC[C@@H](C1)N2c1ccc(C(N)=O)cn1 [6-(3-endo-{[(4-amino-2-methylphenyl)carbonyl]amino}-8-azabicyclo[3.2.1]oct-8-yl)pyridine-3-carboxamide] | 2000 to 10000 |
| COc1ccc(CNC(=O)c2ccc(N3[C@@H]4CC[C@H]3C[C@@H](NC(=O)c3cccc(OC)c3C)C4)nc2)cc1F [N-{[3-fluoro-4-(methyloxy)phenyl]methyl}-6-[3-endo-({[2-methyl-3-(methyloxy)phenyl]carbonyl}amino)-8-azabicyclo[3.2.1]oct-8-yl]pyridine-3-carboxamide] | < 500 |

Continued, values first:

| IC50 [nM] | Compound |
| --- | --- |
| < 500 | CCc1cc(C(N)=O)c(N[C@H](C)CC)cc1C(=O)NC1CC2CCC(C1)N2c1ccc(C(=O)C2CC2)cn1 (stereo partly drawn) [N-{8-[5-(cyclopropylcarbonyl)pyridin-2-yl]-8-azabicyclo[3.2.1]oct-3-endo-yl}-2-ethyl-5-{[(1R)-1-methylpropyl]amino}benzene-1,4-dicarboxamide] |
| < 500 | CC(=O)c1ccc(N2[C@@H]3CC[C@H]2C[C@@H](NC(=O)c2ccc(C(N)=O)c(NC(C)C(C)C)c2)C3)nc1 (stereo partly drawn) [N4-[8-(5-acetylpyridin-2-yl)-8-azabicyclo[3.2.1]oct-3-endo-yl]-2-[(1,2-dimethylpropyl)amino]benzene-1,4-dicarboxamide] |
| < 500 | NC(=O)c1ccc(N2C3CCC2CC(NC(=O)c2ccc(C(N)=O)c(N[C@H]4CC[C@H](N)CC4)c2)C3)nc1 (stereo partly drawn) [N4-{8-[5-(aminocarbonyl)pyridin-2-yl]-8-azabicyclo[3.2.1]oct-3-endo-yl}-2-[(trans-4-aminocyclohexyl)amino]benzene-1,4-dicarboxamide] |
| < 500 | CCC(Nc1cc(C(=O)N[C@H]2C[C@H]3CC[C@@H](C2)N3c2ccc(C(=O)C3CC3)cn2)c(C)cc1C(N)=O)C(F)(F)F (stereo partly drawn) [N-{8-[5-(cyclopropylcarbonyl)pyridine-2-yl]-8-azabicyclo[3.2.1]oct-3-endo-yl}-2-methyl-5-{[1-(trifluoromethyl)propyl]amino}benzene-1,4-dicarboxamide] |
| < 500 | COc1cc(C(=O)N[C@H]2C[C@H]3CC[C@@H](C2)N3c2ccc(C(=O)C3CC3)cn2)c(C)cc1C(N)=O [N-{8-[5-(cyclopropylcarbonyl)pyridin-2-yl]-8-azabicyclo[3.2.1]oct-3-endo-yl}-2-methyl-5-(methyloxy)benzene-1,4-dicarboxamide] |
| < 500 | CCC(CC)Nc1cc(C(=O)N[C@H]2C[C@H]3CC[C@@H](C2)N3c2ccc(C(=O)C3CC3)cn2)c(C(F)(F)F)cc1C(N)=O [N-{8-[5-(cyclopropylcarbonyl)pyridine-2-yl]-8-azabicyclo[3.2.1]oct-3-endo-yl}-5-[(1-ethylpropyl)amino]-2-(trifluoromethyl)benzene-1,4-dicarboxamide] |
| < 500 | C[C@H](NC(=O)c1ccc(N2C3CCC2CC(NC(=O)c2ccc(C(N)=O)c(N[C@H]4CC[C@H](O)CC4)c2)C3)nc1)c1ccc(N2CCN(C)CC2)cc1 (stereo partly drawn) [2-[(4-hydroxycyclohexyl)amino]-N4-(8-{5-[({(1S)-1-[4-(4-methylpiperazin-1-yl)phenyl]ethyl}amino)carbonyl]pyridin-2-yl}-8-azabicyclo[3.2.1]oct-3-endo-yl)benzene-1,4-dicarboxamide] |
| < 500 | CC(=O)c1ccc(N2[C@@H]3CC[C@H]2C[C@@H](NC(=O)c2ccc(C(N)=O)c(NC4CCCCC4)c2)C3)nc1 [N4-[8-(5-acetylpyridin-2-yl)-8-azabicyclo[3.2.1]oct-3-endo-yl]-2-(cyctohexylamino)benzene-1,4-dicarboxamide] |
